Data published in patent publication US20230293460A1, “METHOD FOR TREATING DERMATITIS” (CHANG GUNG MEMORIAL HOSPITAL, LINKOU, priority 2020, published 2023).

Test system: dermatitis in the hands
Test: Example 4: middle-aged patient with dermatitis in the hands
Format: in vivo, human
Details: given together: clobetasol ointment (0.025%) twice a day 21 days, desloratadine 5 mg once a day + hydroxyzine 25 mg twice a day 21 days, cyclosporine 100 mg twice a day 28 days; one patient

Compound | scaling and chronic inflammation
Clc1ccc2c(c1)CCc1cccnc1C2=C1CCNCC1 [desloratadine] | did not improve
OCCOCCN1CCN(C(c2ccccc2)c2ccc(Cl)cc2)CC1 (centres unmarked) [hydroxyzine] | did not improve
